Data on five compounds can be found in patent US7589123B2, “Chemical compounds” (Phytopharm PLC, priority 2006, dated 2009).

The subject of experiment [1] is α-smooth muscle actin (α-SMA) mRNA. The experiment can be described thus: Anti-remodelling activity in human lung fibroblasts (HFL1): TGFβ-induced α-SMA mRNA (Assay 4). The format is cell-based. To be noted: Homo sapiens, HFL1 cells, TGFβ 10 ng/ml, 24 h, read-out: Inhibition of α-SMA mRNA synthesis (%). In outline:
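Real-time RT-PCR of α-SMA mRNA, GAPDH as reference, measured after 24 h exposure of low-serum-primed HFL1 cells to 10 ng/ml TGFβ with test compounds (3 and 30 μM) in 10% FBS medium. Readout is inhibition of TGFβ-driven α-SMA mRNA overexpression.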

Experiment [2] relates to ovalbumin-sensitised mice. The experiment can be described thus: Ovalbumin-sensitised mice, a chronic model of asthma in vivo (Assay 8). Particulars: for methacholine-induced increase in penH (enhanced pause) / Increase in penH: day 54; for methacholine-induced increase in penH (enhanced pause): methacholine challenge 50 mg/kg; for methacholine-induced increase in penH (enhanced pause) / eosinophil infiltration into the lung / IL-13 concentrations in the BAL / amount of lung remodelling (histopathology grading): oral gavage 20 days: compound 2 3, compound 32 30, budesonide 1, montelukast 10 mg/kg/day; for eosinophil infiltration into the lung: day 55, BAL cytospins; for Eosinophil infiltration / IL-4 concentration / IL-13 concentration / Histopathology score / Increase in penH: mean ± s.e.mean, oral gavage 20 days: 2 3 mg/kg/day, 32 30 mg/kg/day, budesonide 1 mg/kg/day, montelukast 10 mg/kg/day; for Eosinophil infiltration / IL-4 concentration / IL-13 concentration: BAL fluid day 55; for Eosinophil infiltration: sensitised 192.1 ± 33.2; for IL-4 concentration: sensitised 231.2 ± 62.4; for IL-13 concentration: sensitised 241.9 ± 89.3; for Histopathology score: lung remodelling, sensitised 541.6 ± 36.1; for Increase in penH: methacholine challenge, sensitised 193.0 ± 61.7. The procedure:
Mice (BALB/c from Harlan-Olac) were sensitised to ovalbumin using two interperitoneal injections of ovalbumin (10 μg) and alum (200 μl) on day 1 and 14 followed by a 20 min, daily exposure to a ovalbumin aerosol (5%) on days 19-23 and then a thrice weekly 20 min, exposure to a ovalbumin aerosol (5%) on days 24-55. […] On day 54, mice were placed in BUXCO four chamber whole body plethysmographs and breathing-associated pressure changes were recorded which were then used to calculate enhanced pause (penH), a measurement of airways resistance, in response to a methacholine challenge.
On day 55 the mice were killed and brochoalveolar lavage (BAL) fluid was collected and cytospins prepared to measure eosinophil infiltration. In addition, concentrations of interleukin-4 (IL-4) and interleukin-13 (IL-13) were measured in the BAL fluid. Furthermore, lung samples were taken, examined by a histopathologist and scored using a grading system to describe the degree of lung remodelling.

Experiment [3] deals with ovalbumin-sensitised guinea pigs. The experiment can be described thus: Ovalbumin-sensitised guinea pigs, a model of asthma in vivo (Assay 7). Particulars: oral gavage 30 mg/kg/day for 7 days. Details: species or system guinea pig. The procedure:
Dunkin-Hartley guinea pigs were sensitised to ovalbumin using two interperitoneal injections of ovalbumin (20 μg) in Al(OH)3 gel (1.65 mg) on days 1 and 11. On day 25 compound 2 was administered by oral gavage (30 mg/kg/day) for 7 days. On day 31, approximately 2 h after the last administration of compound 2, each guinea pig was anaesthetised with urethane (1750 mg/kg, i.p.) and artificially ventilated via a tracheal cannula connected to a Fleisch pneumotachograph (size 00) and a differential pressure transducer (±2 cm H2O; PT5, Grass Astro-Med Inc., USA). Total pulmonary resistance (RL) was calculated online by integration of flow, tidal volume and transpulmonary pressure. Pulmonary resistance was recorded for approximately 5 min before ovalbumin (300 μg/ml, i.v) challenge and for approximately 15 min following ovalbumin challenge and was recorded in real time using a computer data acquisition system (Po-ne-Mah, USA).

In general, inhibition refers to the drop in the measured response relative to a control, in per cent. Regarding `COc1cc(CCC(=O)CC(=O)C(C)(C)C)ccc1O` [Compound 2, 6,6-Dimethyl-1-(4-hydroxy-3-methoxyphenyl)-heptane-3,5-dione], in experiment [1], the inhibition at 3 µM was determined as 5% and the inhibition at 30 µM came to 27%. In addition, in experiment [2], the “methacholine-induced increase in penH (enhanced pause)” value is on record as “decreased”, the “eosinophil infiltration into the lung” value was “reduced”, the Eosinophil infiltration is on record as 83.0 ± 10.8% of control and the IL-4 concentration was 238.2 ± 57.1% of control. In addition, in experiment [2], the IL-13 concentration is 183.0 ± 60.9% of control and the “Increase in penH” value was 107.4 ± 21.5% of control. In addition, in experiment [2] (day 55), the “IL-13 concentrations in the BAL” value was “reduced”, the “amount of lung remodelling (histopathology grading)” value is given as “reduced” and the Histopathology score is listed as 450.0 ± 33.4% of control. For the same compound, in experiment [3] (ovalbumin 300 μg/kg i.v. challenge, vehicle control group 228±57%), the “increase in pulmonary resistance following ovalbumin exposure” value was 132±15%. Further, the “increase in pulmonary resistance compared with vehicle control” value in experiment [3] (ovalbumin i.v. challenge) is recorded as “significantly lower than vehicle control”.
With `COc1cc(CCC(=O)CC(=O)C2(C)CC2)ccc1O` [Compound 6, 5-(4-Hydroxy-3-methoxyphenyl)-1-(1-methylcyclopropyl)-pentane-1,3-dione], in experiment [1], the inhibition at 3 µM was -12% and the inhibition at 30 µM was 22%.
For `COc1cc(CCC(=O)C(C)C(=O)c2ccccc2)ccc1O` (stereo not shown) [Compound 11, 5-(4-Hydroxy-3-methoxy-phenyl)-2-methyl-1-phenyl-pentane-1,3-dione] the same measures were 8% and 39%.
Turning to `COc1cc(CCC(=O)C(C)(C)C(=O)c2ccccc2)ccc1O` [Compound 32, 2,2-Dimethyl-5-(4-hydroxy-3-methoxy-phenyl)-1-phenyl-pentane-1,3-dione], in experiment [1], the inhibition at 3 µM was determined as 13% and the inhibition at 30 µM was 58%. Moreover, in experiment [2], the “methacholine-induced increase in penH (enhanced pause)” value is recorded as “decreased”, the “eosinophil infiltration into the lung” value is given as “reduced”, the Eosinophil infiltration was 106.6 ± 19.9% of control and the IL-4 concentration is 168.0 ± 50.8% of control. In addition, in experiment [2], the IL-13 concentration is 148.7 ± 88.4% of control and the “Increase in penH” value is 153.5 ± 29.0% of control. Besides, in experiment [2] (day 55), the “IL-13 concentrations in the BAL” value is given as “reduced”, the “amount of lung remodelling (histopathology grading)” value is “reduced” and the Histopathology score is listed as 339.3 ± 45.0% of control. For the same compound, the “IL-4 concentration in the BAL” value in experiment [2] (day 55, oral gavage 20 days: compound 32 30, budesonide 1, montelukast 10 mg/kg/day) is “reduced”.
`COc1cc(CCC(=O)CC(=O)c2ccccc2)ccc1O` [Compound 69, 5-(4-Hydroxy-3-methoxyphenyl)-1-phenyl-pentane-1,3-dione]: in experiment [1], the inhibition at 3 µM stood at 10% and the inhibition at 30 µM was found to be 34%.
